Assay results as given in US20080194696A1 (priority 2006, published 2008).
Where two headings read alike, the source gives them in different places.

Key:
Type in all cases: biochemical
dopamine (DA) transport [1] = molecular target: T1, dopamine (DA) transport (Rattus norvegicus, UniProt P23977); test: Inhibition of [3H]DA uptake in rat striatum synaptosomes; design: synaptosomal preparations were made from either whole brain (5-HT), striatum (DA) or hypothalamus (NE); from tissue; host or cells: rat striatum synaptosomes; conditions: for Uptake Inhibition % at 500 nM DA: 500 nM test compound, 15 min at 37° C.; for inhibition at 0.5 µM: read-out: Uptake Inhibition % at 500 nM DA
Protocol: (§1) The effects of arylbicyclo[3.1.0]hexylamines of the invention for inhibiting transport of norepinephrine (NE) and/or dopamine (DA) and/or serotonin (5-HT) were evaluated using preparations of synaptosomes from different regions of the rat brain according to previously-reported techniques.
(§2) Whole brains were obtained from normal rats, and synaptosomal preparations were made from either whole brain (5-HT), striatum (DA) or hypothalamus (NE) by gentle disruption in 10 volumes (w/v) of 0.32 M sucrose (0-4° C.) using a Teflon-glass homogenizer. The homogenate was then centrifuged at 1000×g for 10 min. The supernatant was retained and centrifuged at 23000 g for 20 min. The resulting pellet was gently resuspended in 200 volumes of 0.32 M sucrose (0-4° C.) using a teflon-glass homogenizer. Aliquots (250 μL) of this preparation were added to tubes, along with 0.2 μCi/mL of [^3H]5-HT, [^3H]DA, or [^3H]NE, 200 μL of selected 1-arylbicyclo[3.1.0]hexanamine test compounds ([…]) and 1 mL of Krebs-Ringer bicarbonate buffer (pH 7.4). […] At the end of this period, the assay was terminated by rapid filtration over Whatman GF/C glass fiber filters. The filters were rinsed 3 times with 4 ml of Krebs-Ringer bicarbonate buffer (0-4° C.), and the radioactivity retained on the filters was measured by liquid scintillation spectrometry.
Target sequence in this assay (P23977 whole entry): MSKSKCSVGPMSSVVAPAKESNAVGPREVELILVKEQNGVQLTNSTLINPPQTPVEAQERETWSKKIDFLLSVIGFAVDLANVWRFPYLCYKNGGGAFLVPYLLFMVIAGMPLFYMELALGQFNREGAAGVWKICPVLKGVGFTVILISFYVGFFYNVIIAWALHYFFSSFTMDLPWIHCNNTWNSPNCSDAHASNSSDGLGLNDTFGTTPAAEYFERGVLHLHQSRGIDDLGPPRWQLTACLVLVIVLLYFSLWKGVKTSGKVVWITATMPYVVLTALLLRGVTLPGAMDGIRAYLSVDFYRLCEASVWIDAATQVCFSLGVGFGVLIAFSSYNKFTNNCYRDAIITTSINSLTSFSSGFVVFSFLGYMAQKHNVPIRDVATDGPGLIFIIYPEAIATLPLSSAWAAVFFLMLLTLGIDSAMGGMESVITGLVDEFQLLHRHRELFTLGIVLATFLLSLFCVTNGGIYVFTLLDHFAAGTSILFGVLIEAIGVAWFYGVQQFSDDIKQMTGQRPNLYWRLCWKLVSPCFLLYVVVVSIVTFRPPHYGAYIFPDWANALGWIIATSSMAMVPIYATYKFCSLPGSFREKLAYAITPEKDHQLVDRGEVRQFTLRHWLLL

[2] = molecular target: T2, serotonin (5-HT) transport (Rattus norvegicus, UniProt P31652); test: Inhibition of [3H]5-HT uptake in rat whole brain synaptosomes; conditions: for Uptake Inhibition % at 500 nM 5-HT: 500 nM test compound, rat whole brain synaptosomes, [3H]5-HT, 15 min at 37° C.; for inhibition at 0.5 µM: read-out: Uptake Inhibition % at 500 nM 5-HT
Protocol: as §1
(§3) Whole brains were obtained from normal rats, and synaptosomal preparations were made from either whole brain (5-HT), striatum (DA) or hypothalamus (NE) by gentle disruption in 10 volumes (w/v) of 0.32 M sucrose (0-4° C.) using a Teflon-glass homogenizer. The homogenate was then centrifuged at 1000×g for 10 min. The supernatant was retained and centrifuged at 23000 g for 20 min. The resulting pellet was gently resuspended in 200 volumes of 0.32 M sucrose (0-4° C.) using a teflon-glass homogenizer. Aliquots (250 μL) of this preparation were added to tubes, along with 0.2 μCi/mL of [^3H]5-HT, [^3H]DA, or [^3H]NE, 200 μL of selected 1-arylbicyclo[3.1.0]hexanamine test compounds (to yield final concentrations of 500 nM) and 1 mL of Krebs-Ringer bicarbonate buffer (pH 7.4). […] At the end of this period, the assay was terminated by rapid filtration over Whatman GF/C glass fiber filters. The filters were rinsed 3 times with 4 ml of Krebs-Ringer bicarbonate buffer (0-4° C.), and the radioactivity retained on the filters was measured by liquid scintillation spectrometry.

[3] = molecular target: T3, norepinephrine (NE) transport (Rattus norvegicus, UniProt Q63380); test: Inhibition of [3H]NE uptake in rat hypothalamus synaptosomes; conditions: for Uptake Inhibition % at 500 nM NE: 500 nM test compound, rat hypothalamus synaptosomes, [3H]NE, 20 min at 37° C.; for inhibition at 0.5 µM: read-out: Uptake Inhibition % at 500 nM NE
T3 construct: synaptosomal preparations were made from either whole brain (5-HT), striatum (DA) or hypothalamus (NE); from tissue; host or cells: rat hypothalamus synaptosomes
Protocol: as §1, §3

[4] = molecular target: T2, serotonin (5-HT) transport; test: Inhibition of [3H]5-HT uptake in rat whole brain synaptosomes
dopamine (DA) transport [5] = molecular target: T1, dopamine (DA) transport; test: Inhibition of [3H]DA uptake in rat striatum synaptosomes
Protocol: as §1, §2
Target sequence in this assay (P23977 whole entry, looked up): as the sequence (P23977 whole entry) above

[6] = molecular target: T3, norepinephrine (NE) transport; test: Inhibition of [3H]NE uptake in rat hypothalamus synaptosomes
[7] = rat striatum synaptosomes, [3H]DA
[8] = rat striatum synaptosomes, [3H]DA, read-out: Uptake IC50 (nM) DA

T3 sequence (Q63380 1-617): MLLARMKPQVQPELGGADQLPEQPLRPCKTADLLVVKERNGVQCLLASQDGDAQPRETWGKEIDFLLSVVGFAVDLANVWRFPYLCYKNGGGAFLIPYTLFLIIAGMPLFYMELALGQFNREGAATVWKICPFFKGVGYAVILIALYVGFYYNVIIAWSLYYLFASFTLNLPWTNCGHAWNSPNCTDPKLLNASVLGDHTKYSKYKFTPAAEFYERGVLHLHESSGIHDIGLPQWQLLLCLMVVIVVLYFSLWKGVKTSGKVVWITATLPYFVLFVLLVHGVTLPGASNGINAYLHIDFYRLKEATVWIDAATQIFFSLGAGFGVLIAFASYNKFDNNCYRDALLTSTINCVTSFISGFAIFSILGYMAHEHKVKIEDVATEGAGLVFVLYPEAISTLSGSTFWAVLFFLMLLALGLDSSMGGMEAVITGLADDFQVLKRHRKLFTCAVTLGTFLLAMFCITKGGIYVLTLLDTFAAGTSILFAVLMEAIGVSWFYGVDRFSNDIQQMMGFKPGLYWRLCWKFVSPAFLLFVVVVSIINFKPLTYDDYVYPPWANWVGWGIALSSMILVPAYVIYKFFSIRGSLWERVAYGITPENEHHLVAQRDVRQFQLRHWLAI
T2 sequence (P31652 whole entry): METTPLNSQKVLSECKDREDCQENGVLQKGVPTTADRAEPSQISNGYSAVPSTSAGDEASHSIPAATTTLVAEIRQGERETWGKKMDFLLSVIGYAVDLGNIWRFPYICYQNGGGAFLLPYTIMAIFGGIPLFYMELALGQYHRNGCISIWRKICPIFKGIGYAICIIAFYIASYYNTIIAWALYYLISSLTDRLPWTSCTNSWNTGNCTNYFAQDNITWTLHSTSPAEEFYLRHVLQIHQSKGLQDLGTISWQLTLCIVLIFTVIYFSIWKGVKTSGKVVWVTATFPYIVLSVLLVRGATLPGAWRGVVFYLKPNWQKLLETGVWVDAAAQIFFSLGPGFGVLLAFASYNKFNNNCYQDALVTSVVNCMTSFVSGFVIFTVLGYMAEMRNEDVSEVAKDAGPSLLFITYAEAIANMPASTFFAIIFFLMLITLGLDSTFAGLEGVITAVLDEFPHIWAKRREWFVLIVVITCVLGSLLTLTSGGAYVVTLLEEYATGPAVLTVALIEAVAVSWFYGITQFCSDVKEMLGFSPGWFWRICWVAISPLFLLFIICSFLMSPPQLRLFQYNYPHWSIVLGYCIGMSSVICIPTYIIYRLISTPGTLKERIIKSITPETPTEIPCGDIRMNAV

Molecule	inhibition at 0.5 µM (dopamine (DA) transport [1])	inhibition at 0.5 µM [2]	inhibition at 0.5 µM [3]	other results
5-p-tolylbicyclo[3.1.0]hexan-2-amine				Uptake Inhibition % at 500 nM DA (dopamine (DA) transport [1]; [7]): 39%; Uptake Inhibition % at 500 nM 5-HT [2]: 74%; Uptake Inhibition % at 500 nM NE [3]: 42%
Cc1ccc(C23CC(N)CC2C3)cc1 (stereo not shown) [1-p-tolylbicyclo[3.1.0]hexan-3-amine]	44%	21%	38%	
NC1C[C@@H]2C[C@]2(c2ccc(Cl)c(Cl)c2)C1 (stereo partly shown)	83%	75%	59%	
CNC1CCC2(c3cccc4ccccc34)CC12 (stereo not shown)	29%	90%	49%	
CNC1CCC2CC21c1ccc(Cl)c(Cl)c1 (stereo not shown) [1-(3,4-dichlorophenyl)-N-methylbicyclo[3.1.0]hexan-2-amine]	101%	15%	94%	IC50 (dopamine (DA) transport [1]): 3 nM; IC50 [3]: 18 nM; IC50 [4]: 3680 nM
CNC1CCC2CC21c1ccc(C)cc1 (stereo not shown) [N-methyl-1-p-tolylbicyclo[3.1.0]hexan-2-amine]	33%	4%	8%	
Cc1ccc(C23CC(N(C)C)CC2C3)cc1 (stereo not shown) [N,N-dimethyl-1-p-tolylbicyclo[3.1.0]hexan-3-amine]	0%	66%	50%	
CNC1CCC2(c3ccc(C)cc3)CC12 (stereo not shown)	63%	37%	89%	IC50 (dopamine (DA) transport [1]): 858 nM; IC50 [2]: 1190 nM; IC50 [3]: 313 nM
NC1C[C@H]2C[C@@]2(c2ccc(Cl)c(Cl)c2)C1 (stereo partly shown)				IC50 (dopamine (DA) transport [5]): 60 nM
Cc1ccc(C23CCC(N(C)C)C2C3)cc1 (stereo not shown)	55%	44%	57%	
Cc1ccc(C23CC2CCC3N)cc1 (stereo not shown) [1-p-tolylbicyclo[3.1.0]hexan-2-amine]	18%	20%	14%	
N-methyl-5-p-tolylbicyclo[3.1.0]hexan-2-amine				Uptake Inhibition % at 500 nM DA (dopamine (DA) transport [1]; [7]): 23%; IC50 (dopamine (DA) transport [1]; [8]): 8730 nM; Uptake Inhibition % at 500 nM 5-HT [2]: 82%; IC50 [6]: 74 nM; Uptake Inhibition % at 500 nM NE [3]: 81%; IC50 [4]: 76 nM
CNC1CCC2(c3ccc4ccccc4c3)CC12 (stereo not shown)	45%	90%	47%	
CNC1CC2CC2(c2ccc(C)cc2)C1 (stereo not shown) [N-methyl-1-p-tolylbicyclo[3.1.0]hexan-3-amine]	43%	69%	73%	
Cc1ccc(C23CC2CCC3N(C)C)cc1 (stereo not shown) [N,N-dimethyl-1-p-tolylbicyclo[3.1.0]hexan-2-amine]	70%	0%	71%	IC50 (dopamine (DA) transport [1]): 335 nM; IC50 [2]: > 5000 nM; IC50 [3]: 2090 nM
Cc1ccc(C23CCC(N)C2C3)cc1 (stereo not shown)	31%	25%	50%	
CN(C)C1CCC2(c3ccc4ccccc4c3)CC12 (stereo not shown)	42%	96%	26%	
NC1CCC2CC12c1ccc(Cl)c(Cl)c1 (stereo not shown) [1-(3,4-dichlorophenyl)bicyclo[3.1.0]hexan-2-amine]	86%	5%	34%	
CN(C)C1CCC2CC21c1ccc(Cl)c(Cl)c1 (stereo not shown) [1-(3,4-dichlorophenyl)-N,N-dimethylbicyclo[3.1.0]hexan-2-amine]	99%	38%	96%	IC50 (dopamine (DA) transport [1]): 9 nM; IC50 [2]: 1240 nM; IC50 [3]: 11 nM
NC1C[C@H]2C[C@@]2(c2cccc3ccccc23)C1 (stereo partly shown)	53%	65%	76%	IC50 (dopamine (DA) transport [1]; [8]): 496 nM; IC50 [6]: 282 nM; IC50 [4]: 425 nM
CN(C)C1CCC2(c3cccc4ccccc34)CC12 (stereo not shown)	15%	76%	25%	
CN(C)C1CCC2(c3ccc(Cl)c(Cl)c3)CC12 (stereo not shown)	34%	95%	29%	
CNC1CCC2(c3ccc(Cl)c(Cl)c3)CC12 (stereo not shown)	56%	94%	63%	IC50 (dopamine (DA) transport [1]): 360 nM; IC50 [2]: 75 nM; IC50 [3]: 444 nM
NC1CC2CC2(c2ccc(Cl)c(Cl)c2)C1 (stereo not shown) [1-(3,4-dichlorophenyl)bicyclo[3.1.0]hexan-3-amine]	77%	89%	76%	IC50 (dopamine (DA) transport [1]; [8]): 111 nM; IC50 [6]: 126 nM; IC50 [4]: 38 nM
